Reference: US20250360100A1, “ANTI-CANCER DERIVATIVES OF OVATODIOLIDE AND USE THEREOF” (ARJIL BIOTECH HOLDING COMPANY LIMITED, priority 2024, published 2025)
Converted amounts (≈) assume the structure as drawn.

Columns and labels:
[1] = test system: PANC-1 (human pancreatic epithelioid carcinoma); assay: MTT cytotoxicity assay in PANC-1 cells; assay type: cell-based; settings: 48 hours treatment, read-out: CC50 (50% cytotoxic concentration)
Protocol: (§1) In the invention, the cytotoxic effect was evaluated by the viability of cancer/tumor cells measured by the MTT assay, in several cancer cell lines, including the cell lines 293, A549, Colo205, SK-HEP1, PC-3, PANC-1, and AGS.
(§2) The compounds as tested were dissolved in DMSO (100 mg/mL), along with Doxorubicin (Dox), taken as a benchmark control, and the in vitro cytotoxicity in cancer cell lines were tested from 60 or 100 μg/mL with three-fold serial dilutions, and the 50% cytotoxic concentration (CC50) of test articles was determined by MTT assay.
(§3) Seven cancer cell lines were used in this example, including 293 (human embryonic kidney cells 293), A549 (human non-small cell lung cancer cells), Colo205 (human colon adenocarcinoma cells), SK-HEP1 (human hepatic cancer cells), PC-3 (human prostate carcinoma), PANC-1 (human pancreatic epithelioid carcinoma), and AGS (human gastric adenocarcinoma cells), cultured in the media and indicated as the table above. Briefly, cells seeded in 96-well plates were treated for 48 hours with the compounds as tested and the solvent (0.1% DMSO) as the vehicle control, respectively. Cell viability was determined by the MTT method, and the CC50 values were calculated using GraFit (Version 7, Erithacus Software Ltd., Horley, UK) and recorded.

[2] = test system: A549 (human non-small cell lung cancer cells); assay: MTT cytotoxicity assay in A549 cells; assay type: cell-based; settings: 48 hours treatment, read-out: CC50 (50% cytotoxic concentration)
Protocol: as §1, §2, §3

[3] = test system: PC-3 (human prostate carcinoma); assay: MTT cytotoxicity assay in PC-3 cells; assay type: cell-based; settings: 48 hours treatment, read-out: CC50 (50% cytotoxic concentration)
Protocol: as §1, §2, §3

[4] = test system: SK-HEP1 (human hepatic cancer cells); assay: MTT cytotoxicity assay in SK-HEP1 cells; assay type: cell-based; settings: 48 hours treatment, read-out: CC50 (50% cytotoxic concentration)
Protocol: as §1, §2, §3

[5] = test system: AGS (human gastric adenocarcinoma cells); assay: MTT cytotoxicity assay in AGS cells; assay type: cell-based; settings: 48 hours treatment, read-out: CC50 (50% cytotoxic concentration)
Protocol: as §1, §2, §3

[6] = test system: Colo205 (human colon adenocarcinoma cells); assay: MTT cytotoxicity assay in Colo205 cells; assay type: cell-based; settings: COLO 205, 48 hours treatment, read-out: CC50 (50% cytotoxic concentration)
Protocol: as §1, §2, §3

[7] = test system: 293 (human embryonic kidney cells 293); assay: MTT cytotoxicity assay in 293 cells; assay type: cell-based; settings: HEK293, 48 hours treatment, read-out: CC50 (50% cytotoxic concentration)
Protocol: as §1, §2, §3

[8] = test system: seven cancer cell lines (293, A549, Colo205, SK-HEP1, PC-3, PANC-1, AGS); assay: MTT cytotoxicity, overall statement for the seven cancer cell lines; assay type: cell-based, human; settings: all seven cell lines, 48 hours
Protocol: as §1, §2, §3

Structure (SMILES) | CC50 [1] [µg/mL] | CC50 [2] [µg/mL] | CC50 [3] [µg/mL] | CC50 [4] [µg/mL] | CC50 [5] [µg/mL] | CC50 [6] [µg/mL] | CC50 [7] [µg/mL] | cytotoxicity (result in words) [8]
COc1cccc2c1C(=O)c1c(O)c3c(c(O)c1C2=O)C[C@@](O)(C(=O)CO)C[C@@H]3O[C@H]1C[C@H](N)[C@H](O)[C@H](C)O1 [Dox, Doxorubicin] | 10.7 ± 1.5 (≈ 19.7 µM) | > 10 | 10.3 ± 1.5 (≈ 19 µM) | 9.8 ± 0.2 (≈ 18 µM) | 0.3 ± 0.1 (≈ 0.552 µM) | 8.7 ± 0.6 (≈ 16 µM) | > 10 | –
C=C1C(=O)O[C@H]2/C=C(\C)C[C@@H]3C=C(CCC4OC4(C)CC[C@H]12)C(=O)O3 (stereo partly drawn) [Ova-Oxy] | 32 ± 0.8 (≈ 92.9 µM) | 23 ± 4.7 (≈ 66.8 µM) | 12.3 ± 5.4 (≈ 35.7 µM) | 45.2 ± 3.2 (≈ 131 µM) | 9.1 ± 0.9 (≈ 26.4 µM) | 17 ± 0.2 (≈ 49.4 µM) | 22.5 ± 0.5 (≈ 65.3 µM) | exhibit cytotoxic effects in all of the seven cancer cell lines
C=C1C(=O)O[C@H]2/C=C(\C)C[C@@H]3C=C(CC/C=C(\C)CC[C@H]12)C(=O)O3 [AR100-DS1, ovatodiolide] | 40.2 ± 3.9 (≈ 122 µM) | 29.6 ± 0.4 (≈ 90.1 µM) | 17.8 ± 0.2 (≈ 54.2 µM) | 49.9 ± 5.2 (≈ 152 µM) | 13 ± 5.1 (≈ 39.6 µM) | 41.7 ± 4.5 (≈ 127 µM) | 25.7 ± 2.5 (≈ 78.3 µM) | –
C/C1=C\CCC2=C[C@@H](C/C(C)=C/[C@@H]3OC(=O)C(CSCCO)[C@H]3CC1)OC2=O (stereo partly drawn) [Ova-ST2] | > 100 | > 100 | > 100 | > 100 | > 100 | > 100 | > 100 | did not exhibit the cytotoxicity
